Measured values taken from patent US20080004227A1, “Pharmaceutical Composition for Lowering Blood Sugar Level” (PHARMAFRONTIER CO., LTD, priority 2004, published 2008).

What was measured:
[1] = test system: human intestinal cell line NCI-H716; settings: literature report, background art; cited from earlier work
[2] = test system: GLP-1 release; assay: In vivo effects of ligands for GT01 on GLP-1 release (plasma GLP-1 enzyme immunoassay); set-up: species or system mouse; settings: 100 nmol/g directly into the stomach of 24-hour fasted C57/B6 mice; blood 0.5 or 2 hours after administration (FIG. 11)
Description: A 100 nmol/g of fatty acid (α-linolenic acid, stearic acid, or octanoic acid) was included in polyethyleneglycol as a vehicle, and given, through a tube, directly into the stomach of 8-week old male C57/B6 mice (Sankyo Lab) after 24-hour fasting. The mice were each anaesthetized with diethyl ether 0.5 or 2 hours after the administration of the fatty acid, followed by sampling the blood from the portal vein using a heparinized syringe. The heparizized blood was centrifuged at 4° C. and 1,200×g for 20 minutes to prepare a plasma which was then subjected to enzyme immunoassay for GLP-1 (Yanaihara Institute Inc.). All experiments were performed according to an institute-approved guideline.

[3] = test system: insulin release; settings: 100 nmol/g directly into the stomach of 24-hour fasted C57/B6 mice; 2 hours after administration (FIG. 13)
Description: All experiments were performed according to an institute-approved guideline.

[4] = target: GT01 (Mus musculus, UniProt Q7TMA4); settings: STC-1 cells; peak eliminated by RNAi specific for GT01 (FIG. 6)
Sequence of GT01 (Q7TMA4 whole entry): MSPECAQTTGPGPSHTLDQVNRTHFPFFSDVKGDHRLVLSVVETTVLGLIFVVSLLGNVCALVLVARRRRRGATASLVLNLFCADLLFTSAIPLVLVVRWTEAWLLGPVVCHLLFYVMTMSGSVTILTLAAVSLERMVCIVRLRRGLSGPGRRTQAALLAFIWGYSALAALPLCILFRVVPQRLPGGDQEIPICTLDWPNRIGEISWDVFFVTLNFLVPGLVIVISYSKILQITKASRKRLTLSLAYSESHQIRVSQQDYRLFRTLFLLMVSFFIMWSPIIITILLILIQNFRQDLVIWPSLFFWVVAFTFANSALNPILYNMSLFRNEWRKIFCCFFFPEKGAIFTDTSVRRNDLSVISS
Description: Cells (STC-1 cells) are cultured in a 35-mm culture dish with a cover glass in the bottom. After washing with a Ca-tyrode solution, a Ca-tyrode solution containing 2 μM fura-AM is added thereto, which is then placed at room temperature for 20 minutes. After washing twice with a Ca-tyrode solution, 1 mL of Ca-tyrode solution is added thereto, and images are captured at room temperature at 15-second intervals using ARGUS200 (340/380 nm measurement) with a 40× objective lens. For each of the captured images, the ratio is calculated. Stimulation (using bombesin) serving as a control for the ligand is carried out 10 and 20 minutes later.
When an RNAi vector was transfected, fluorescence due to GFP simultaneously transfected is measured; a Ca^2+ response over time for cells having GFP fluorescence and showing Ca^2+ elevation with the control vector was quantitatively determined, and is indicated (FIG. 6).
The gene transfection into STC-1 cells was carried out using Lipofectamine Plus, and intracellular Ca^2+ concentration was then measured under a microscope (lower graph in FIG. 6).

Row | SMILES | secretion of GLP-1 from NCI-H716 cells [1] | secretion of GLP-1 (plasma from portal vein) [2] | insulin concentration in plasma, portal vein versus inferior vena cava [3] | elevation of intracellular calcium concentration [4]
1 | CCCCCCCC/C=C\CCCCCCCC(=O)O [oleic acid] | promotes the secretion of GLP-1 | – | – | –
2 | CCCCCCCCCCCCCCCC(=O)O [palmitic acid] | promotes the secretion of GLP-1 | – | – | –
3 | CCCCCCCCCCCCCCCCCC(=O)O [stearic acid] | – | induced | – | –
4 | CC/C=C\C/C=C\C/C=C\CCCCCCCC(=O)O [α-linolenic acid] | – | induced | higher concentration of insulin was detected in the plasma sampled from the portal vein | elevates intracellular calcium concentration via GT01
